In PMC11779965 (Nature Communications, 2025):

Experiments:
female CD-1 mice = experiment: Catalepsy bar test; format: in vivo; conditions: 200 mg/kg IP, 90 min after dosing
[1] = clogP calculated with ChemAxon Marvin Sketch; conditions: 78 vs Sulfadiazine
physchem = conditions: pH 7.4, […]

| Compound | Catalepsy score compared to Vehicle-treated group (in words) (female CD-1 mice) | further results |
| --- | --- | --- |
| CCN(CC)CCNC(=O)c1cc(S(C)(=O)=O)cnc1OC [Compound 79] | remained at the level of the Control Vehicle-treated group | – |
| CS(=O)(=O)c1cnc(NS(=O)(=O)c2ccc(N)cc2)nc1.Cl [Compound 78] | – | Decrease of lipophilicity on replacement of H with MeSO2 [1]: ca. 1.2 clogP units |
| CCN(CC)CCNC(=O)c1cc(S(C)(=O)=O)ccc1OC [Tiapride] | significantly higher | – |
| Nc1ccc(S(=O)(=O)Nc2ncccn2)cc1 [Sulfadiazine] | – | logD (physchem): -0.8 |
